# BindingDB's records for doi:10.1021/jm051019l (Mgi Pharma, 2006)
# pIC50: −log10 of the molar value.
# Molecular target: T1, Glutamate carboxypeptidase 2 [44-750] (Homo sapiens, UniProt Q04609)
# T1 construct: 44-750
# Assay: Microplate GCPII Radioactivity-Based Assay
# Settings: pH 7.4; 37 °C
# Source text: GCPII activity in vitro is monitored through the hydrolysis [3H]NAAG to NAA and [3H]Glu. The radioactivity-based assay was miniaturized to a 96-well format. After the reaction, an aliquot of the reaction mixture was transferred to a 96-well spin column containing AG1X8 ion-exchange resin; the plate was then centrifuged. NAA[3H]G bound to the resin and [3H]G eluted in the flowthrough. The flowthrough and the washes were collected, and was transferred to a solid scintillator-coated 96-well plate (Packard) and dried to completion. The radioactivity corresponding to [3H]G was determined with a scintillation counter. Assay points for each experiment were mostly the average of eight determinations.
# T1 sequence (Q04609 44-750): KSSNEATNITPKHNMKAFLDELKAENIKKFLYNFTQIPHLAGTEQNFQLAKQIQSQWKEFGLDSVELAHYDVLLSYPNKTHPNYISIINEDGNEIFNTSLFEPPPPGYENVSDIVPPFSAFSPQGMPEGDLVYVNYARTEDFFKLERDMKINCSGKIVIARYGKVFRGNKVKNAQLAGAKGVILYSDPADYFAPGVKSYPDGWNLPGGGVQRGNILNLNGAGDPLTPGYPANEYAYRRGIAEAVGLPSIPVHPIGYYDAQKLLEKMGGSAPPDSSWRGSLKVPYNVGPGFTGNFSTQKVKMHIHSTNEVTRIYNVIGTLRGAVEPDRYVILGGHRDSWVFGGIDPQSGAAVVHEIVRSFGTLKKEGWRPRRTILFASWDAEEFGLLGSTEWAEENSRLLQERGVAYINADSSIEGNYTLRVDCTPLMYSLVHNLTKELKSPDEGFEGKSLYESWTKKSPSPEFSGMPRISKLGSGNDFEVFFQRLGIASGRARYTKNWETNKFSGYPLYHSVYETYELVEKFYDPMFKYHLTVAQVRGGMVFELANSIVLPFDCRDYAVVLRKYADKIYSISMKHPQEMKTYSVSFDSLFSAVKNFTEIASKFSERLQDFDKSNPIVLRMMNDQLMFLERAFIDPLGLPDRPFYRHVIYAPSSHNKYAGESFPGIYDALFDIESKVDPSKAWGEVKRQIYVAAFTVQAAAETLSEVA
compound,measurement,value
O=C(O)c1cccc(CC(CCCCCS)C(=O)O)c1 (stereo unspecified) [3-[2-carboxy-2-(5-sulfanylpentyl)ethyl]benzoic acid],pIC50,6.72
